Source: US20160122342A1, “ENHANCER OF ZESTE HOMOLOG 2 INHIBITORS” (GLAXOSMITHKLINE INTELLECTUAL PROPERTY (NO.2) LIMITED, priority 2013, published 2016)
pIC50: −log10 of the molar value. Where a name gives a salt, the structure may show the parent alone. Read-outs that look alike come from different tables or passages of the source.

Legend:
[1] = rcm bond, DCM, 25.0 °C
[2] = rcm bond
[3] = target: T1, EZH2 within the PRC2 complex (Homo sapiens, UniProt Q15910); assay: Assay Protocol 1: EZH2 methyltransferase scintillation proximity assay, mononucleosome substrate; assay type: biochemical; conditions: Assay Protocol 1; SPA, 3H-SAM, Histone H3 of mononucleosome purified from HeLa cells; 5-member PRC2 complex; read-out: EZH2 IC50
T1 construct: FLAG; made in house; host or cells: Sf9 cells
T1 sequence (Q15910 whole entry): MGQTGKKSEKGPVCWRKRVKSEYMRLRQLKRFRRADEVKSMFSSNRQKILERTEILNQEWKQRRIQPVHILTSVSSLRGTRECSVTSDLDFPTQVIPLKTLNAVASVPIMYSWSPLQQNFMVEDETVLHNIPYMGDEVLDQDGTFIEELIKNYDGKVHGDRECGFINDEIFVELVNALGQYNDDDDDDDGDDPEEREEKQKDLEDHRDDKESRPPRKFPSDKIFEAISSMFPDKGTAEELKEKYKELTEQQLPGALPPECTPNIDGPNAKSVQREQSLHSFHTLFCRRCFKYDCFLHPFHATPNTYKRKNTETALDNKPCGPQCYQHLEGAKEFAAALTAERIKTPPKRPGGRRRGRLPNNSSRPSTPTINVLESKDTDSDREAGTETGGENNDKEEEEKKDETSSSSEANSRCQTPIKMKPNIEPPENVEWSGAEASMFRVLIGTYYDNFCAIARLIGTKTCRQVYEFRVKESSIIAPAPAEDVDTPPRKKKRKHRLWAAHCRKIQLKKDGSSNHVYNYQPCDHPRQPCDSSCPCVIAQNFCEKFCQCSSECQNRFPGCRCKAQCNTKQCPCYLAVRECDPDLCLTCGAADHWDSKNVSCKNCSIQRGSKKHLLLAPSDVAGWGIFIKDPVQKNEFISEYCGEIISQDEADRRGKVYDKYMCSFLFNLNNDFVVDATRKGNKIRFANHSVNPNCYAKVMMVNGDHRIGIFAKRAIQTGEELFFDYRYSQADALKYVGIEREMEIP
T1 sequence (O75530 whole entry partner): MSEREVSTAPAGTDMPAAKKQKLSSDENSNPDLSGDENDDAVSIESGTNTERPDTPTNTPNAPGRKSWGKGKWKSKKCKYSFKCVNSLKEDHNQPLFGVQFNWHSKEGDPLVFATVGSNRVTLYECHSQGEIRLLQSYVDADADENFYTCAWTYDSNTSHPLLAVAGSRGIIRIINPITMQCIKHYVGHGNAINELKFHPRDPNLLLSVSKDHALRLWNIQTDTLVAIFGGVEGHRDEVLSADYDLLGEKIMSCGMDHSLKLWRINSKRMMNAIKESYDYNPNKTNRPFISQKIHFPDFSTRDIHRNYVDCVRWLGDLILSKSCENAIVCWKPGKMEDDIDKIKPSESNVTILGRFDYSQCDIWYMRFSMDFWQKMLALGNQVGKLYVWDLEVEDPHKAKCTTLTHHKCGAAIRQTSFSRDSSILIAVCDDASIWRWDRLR
T1 sequence (Q15022 whole entry partner): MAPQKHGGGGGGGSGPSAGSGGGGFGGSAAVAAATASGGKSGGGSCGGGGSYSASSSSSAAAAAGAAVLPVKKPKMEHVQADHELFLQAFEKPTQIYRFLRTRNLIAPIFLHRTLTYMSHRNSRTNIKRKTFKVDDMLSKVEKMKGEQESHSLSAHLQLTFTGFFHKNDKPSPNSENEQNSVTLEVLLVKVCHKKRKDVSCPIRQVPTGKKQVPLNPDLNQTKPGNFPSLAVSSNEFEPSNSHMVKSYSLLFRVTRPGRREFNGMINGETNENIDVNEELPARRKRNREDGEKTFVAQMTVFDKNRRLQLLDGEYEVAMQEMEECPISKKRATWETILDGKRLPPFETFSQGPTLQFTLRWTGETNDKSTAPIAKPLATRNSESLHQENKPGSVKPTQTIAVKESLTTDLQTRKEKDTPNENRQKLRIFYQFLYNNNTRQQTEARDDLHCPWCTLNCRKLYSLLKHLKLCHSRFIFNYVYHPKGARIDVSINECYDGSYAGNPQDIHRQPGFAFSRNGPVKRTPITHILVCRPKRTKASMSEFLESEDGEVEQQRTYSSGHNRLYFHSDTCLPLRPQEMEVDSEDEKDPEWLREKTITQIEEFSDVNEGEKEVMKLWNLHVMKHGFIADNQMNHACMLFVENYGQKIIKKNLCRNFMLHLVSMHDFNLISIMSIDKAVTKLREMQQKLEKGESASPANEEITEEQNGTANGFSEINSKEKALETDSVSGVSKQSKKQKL
T1 sequence (Q09028 whole entry partner): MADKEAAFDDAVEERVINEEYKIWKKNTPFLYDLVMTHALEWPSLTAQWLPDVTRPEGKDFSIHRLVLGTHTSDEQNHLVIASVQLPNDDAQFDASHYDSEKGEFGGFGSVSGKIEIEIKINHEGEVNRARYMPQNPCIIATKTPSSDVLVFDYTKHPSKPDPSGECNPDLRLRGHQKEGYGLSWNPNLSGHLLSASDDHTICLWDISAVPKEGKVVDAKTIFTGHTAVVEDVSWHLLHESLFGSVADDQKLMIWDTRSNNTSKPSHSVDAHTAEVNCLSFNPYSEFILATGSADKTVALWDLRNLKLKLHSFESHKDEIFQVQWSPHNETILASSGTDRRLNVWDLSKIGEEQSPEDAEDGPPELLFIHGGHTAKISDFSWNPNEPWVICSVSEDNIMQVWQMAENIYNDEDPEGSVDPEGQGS
T1 sequence (Q6ZN18 whole entry partner): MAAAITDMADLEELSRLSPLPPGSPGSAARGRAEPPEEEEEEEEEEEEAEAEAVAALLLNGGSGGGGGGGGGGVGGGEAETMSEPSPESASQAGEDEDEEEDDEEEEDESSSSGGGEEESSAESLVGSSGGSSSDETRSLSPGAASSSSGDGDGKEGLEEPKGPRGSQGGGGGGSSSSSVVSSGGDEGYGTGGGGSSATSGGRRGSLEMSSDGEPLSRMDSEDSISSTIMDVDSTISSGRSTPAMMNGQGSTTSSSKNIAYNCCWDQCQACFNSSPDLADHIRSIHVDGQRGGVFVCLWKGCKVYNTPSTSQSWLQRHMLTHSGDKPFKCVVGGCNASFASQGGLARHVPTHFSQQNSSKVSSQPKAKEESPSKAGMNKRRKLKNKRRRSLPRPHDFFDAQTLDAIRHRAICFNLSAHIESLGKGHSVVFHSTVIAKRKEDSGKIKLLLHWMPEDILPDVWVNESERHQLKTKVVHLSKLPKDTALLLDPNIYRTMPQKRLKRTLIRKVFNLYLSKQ
Procedure: Compounds contained herein were evaluated for their ability to inhibit the methyltransferase activity of EZH2 within the PRC2 complex. […] Mononucleosomes were captured on SPA beads and the resulting signal is read on a ViewLux plate reader. • 1. Prepare 10 mM stock of compounds from solid in 100% DMSO. • 2. […] Dispense 100 nL of compound from the dilution plate into reaction plates (Grenier Bio-One, 384-well, Cat#784075). Prepare the following solutions: • 1. 50 mM Tris-HCl, pH 8: Per 1 L of base buffer, combine 1 M Tris-HCl, pH 8 (50 mL) and distilled water (950 mL). • 2. 1× Assay Buffer: […] SPA Bead Suspension: […] Per 10 mL of 2× Substrate Solution, combine 1× Assay Buffer (9728.55 uL), 800 ug/mL mononucleosomes (125 uL), 1 mM cold SAM (4 uL), and 7.02 uM 3H-SAM (142.45 uL; 0.55 mCi/mL) to provide a final concentration of 5 ug/mL nucleosomes, 0.2 uM cold SAM, and 0.05 uM 3H-SAM. • 6. 2.67× Quench/Bead Mixture: Per 10 mL of 2.67× Quench/Bead Mixture, combine ddH2O (9358 uL), 10 mM cold SAM (267 uL), 40 mg/mL Bead Suspension (375 uL) to provide a final concentration of 100 uM cold SAM and 0.5 mg/mL SPA beads. • 1. Dispense 100 nL/well of 100× Compound to test wells (as noted above). • 2. […] • 1. Dispense 5 uL/well of 1× Assay Buffer to column 18 (low control reactions). • 2. Dispense 5 uL/well of 2× Enzyme Solution to columns 1-17, 19-24. • 3. Spin assay plates for ˜1 minute at 500 rpm. • 4. Stack the assay plates, covering the top plate. • 5. Incubate the compound/DMSO with the enzyme for 30 minutes at room temperature. • 6. Dispense 5 uL/well of 2× Substrate Solution to columns 1-24. • 7. Spin assay plates for ˜1 minute at 500 rpm. • 8. Stack the assay plates, covering the top plate. • 9. Incubate the assay plates at room temperature for 1 hour. • 1. Dispense 5 uL/well of the 3× Quench/Bead Mixture to columns 1-24. • 2. Seal the top of each assay plate with adhesive TopSeal. • 3. Spin assay plates for ˜1 minute at 500 rpm. • 4. […] • 1. Read the assay plates on the Viewlux Plate Reader utilizing the 613 nm emission filter with a 300 s read time. Reagent addition can be done manually or with automated liquid handler. The final DMSO concentration in this assay is 1%. The positive control is in column 6; negative control is in column 18. Final starting concentration of compounds is 100 μM. Percent inhibition was calculated relative to the DMSO control for each compound concentration and the resulting values were fit using standard IC50 fitting parameters within the ABASE data fitting software package.

[4] = target: T1, EZH2 within the PRC2 complex; assay: Assay Protocol 2: EZH2 methyltransferase scintillation proximity assay, biotinylated histone H3 peptide substrate; assay type: biochemical; conditions: SPA, 3H-SAM, biotinylated unmethylated histone H3K27 peptide substrate, 5-member PRC2 complex
Outline: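 PRC2-complexed EZH2 was run in 50 mM Tris-HCl pH 8, 2 mM MgCl2, 4 mM DTT and 0.001% Tween-20. It was added to a 2× mix of 10 uM biotinylated H3K27 peptide, 0.15 uM 3H-SAM and 2.85 uM cold SAM with streptavidin SPA beads. After 60 min at room temperature and a cold-SAM quench, IC50 was fitted from percent inhibition versus DMSO.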

[5] = from C=CCCc1cc(C)nc(OC)c1CNC(=O)c1cccc(N(CC)C2CCOCC2)c1CC=C, 12-membered ring, Grubbs II (2 x 20 mol%), DCM, 25.3 mM, 25.0 °C, 36.0 h
[6] = from C=CCCc1cc(C)nc(OC)c1CNC(=O)c1ccnc(Cl)c1CC=C, 12-membered ring, Grubbs II (10 mol%), DCM, 10.6 mM, 16.0 h

Molecule: COc1cc(Cl)cc2c1CC=CCCCc1cc(C)nc(OC)c1CNC2=O
- ring closure, isolated yield ([1]; from C=CCCCc1cc(C)nc(OC)c1CNC(=O)c1cc(Cl)cc(OC)c1CC=C, 13-membered ring, Grubbs II (10 mol%), 19.6 mM, 16.0 h): 76%

Molecule: CCN(c1cccc2c1C/C=C\Cc1cc(C)nc(OC)c1CNC2=O)[C@H]1CC[C@H](NC(=O)OC(C)(C)C)CC1
- ring closure, yield after HPLC ([2]; from C=CCCc1cc(C)nc(OC)c1CNC(=O)c1cccc(N(CC)[C@H]2CC[C@H](NC(=O)OC(C)(C)C)CC2)c1CC=C, 11-membered ring, Hoveyda-Grubbs (17.5 mol%), DCE, 16.0 mM, 50.0 °C): 13.7%

Molecule: CCN(c1cccc2c1CC=CCCCCc1cc(C)nc(OC)c1CNC2=O)C1CCOCC1
- ring closure, isolated yield ([1]; from C=CCCCCc1cc(C)nc(OC)c1CNC(=O)c1cccc(N(CC)C2CCOCC2)c1CC=C, 14-membered ring, Grubbs II (10 mol%, then ca. 10 mg), 15.8 mM, 22.0 h): 73.1%

Molecule: CCN(c1cccc2c1C/C=C/CCc1cc(C)nc(OC)c1CNC2=O)C1CCC(F)(F)CC1
- ring closure, yield after HPLC ([2]; from C=CCCc1cc(C)nc(OC)c1CNC(=O)c1cccc(N(CC)C2CCC(F)(F)CC2)c1CC=C, 12-membered ring, Grubbs II (15 mol%), DCM, 32.1 mM, 25.0 °C, 16.0 h): 62%

Molecule: COc1cc(Cl)cc2c1CC=CCCc1cc(C)nc(OC)c1CNC2=O
- ring closure, isolated yield ([1]; from C=CCCc1cc(C)nc(OC)c1CNC(=O)c1cc(Cl)cc(OC)c1CC=C, 12-membered ring, Grubbs II (10 mol%), 19.4 mM, 16.0 h): 69%

Molecule: CCN(c1cccc2c1C/C=C/CCc1cc(C)nc(OC)c1CNC2=O)C1CCOCC1
- ring closure, yield after HPLC [2, 5]: 58%

Molecule: COc1nc(C)cc2c1CNC(=O)c1ccnc(Cl)c1C/C=C/CC2
- ring closure, yield after HPLC [2, 6]: 37.3%

Molecule: Cc1cc2c(c(=O)[nH]1)CNC(=O)c1cc(Cl)cc(OC(C)C)c1C/C=C/CC2 [Example 18, (E)-12-chloro-10-isopropoxy-3-methyl-5,6,15,16-tetrahydrobenzo[c]pyrido[4,3-j][1]azacyclododecine-1,14(2H,9H)-dione]
- pIC50 [3]: 7.00
- pIC50 [4]: 6.50

Molecule: (E)-11-(ethyl(1-isopropylpiperidin-4-yl)amino)-3-methyl-5,6,7,10,16,17-hexahydro-1H-benzo[c]pyrido[4,3-k][1]azacyclotridecine-1,15(2H)-dione [Example 42]
- pIC50 [3]: 7.70
- pIC50 [4]: 6.80

Molecule: CCN(c1cccc2c1C/C=C/CCc1cc(C)[nH]c(=O)c1CNC2=O)C1CCN(C(CO)CO)CC1 [Example 51, (E)-10-((1-(1,3-dihydroxypropan-2-yl)piperidin-4-yl)(ethyl)amino)-3-methyl-5,6,15,16-tetrahydrobenzo[c]pyrido[4,3-j][1]azacyclododecine-1,14(2H,9H)-dione]
- pIC50 [3]: 6.70
- pIC50 [4]: 6.40

Molecule: CCN(c1cccc2c1CC=CCOCc1cc(C)[nH]c(=O)c1CNC2=O)C1CCOCC1 (racemic) [Example 12, (E)- and (Z)-11-(ethyl(tetrahydro-2H-pyran-4-yl)amino)-3-methyl-7,10,16,17-tetrahydrobenzo[h]pyrido[4,3-c][1,6]oxaazacyclotridecine-1,15(2H,5H)-dione]
- pIC50 [3]: 6.90
- pIC50 [4]: 6.70

Molecule: Cc1cc2c(c(=O)[nH]1)CNC(=O)c1cc(Cl)cc(O[C@H]3CC[C@H](N(C)C)CC3)c1C/C=C/CCC2 [Example 8, (E)-13-chloro-11-((trans-4-(dimethylamino)cyclohexyl)oxy)-3-methyl-5,6,7,10,16,17-hexahydro-1H-benzo[c]pyrido[4,3-k][1]azacyclotridecine-1,15(2H)-dione]
- pIC50 [3]: 7.20
- pIC50 [4]: 6.60

Molecule: CCN(c1cccc2c1C/C=C/CCc1cc(C)[nH]c(=O)c1CN(C)C2=O)C1CCOCC1 [Example 9, (E)-10-(ethyl(tetrahydro-2H-pyran-4-yl)amino)-3,15-dimethyl-5,6,15,16-tetrahydrobenzo[c]pyrido[4,3-j][1]azacyclododecine-1,14(2H,9H)-dione]
- pIC50 [3]: 7.10
- pIC50 [4]: 6.90

Molecule: CCN(c1cccc2c1C/C=C\CCc1cc(C)nc(OC)c1CNC2=O)C1CCOCC1
- ring closure, yield after HPLC [2, 5]: 23%

Molecule: CCN(c1cccc2c1C/C=C/CCCc1cc(C)[nH]c(=O)c1CNC2=O)C1CCNCC1 [Example 40, (E)-11-(ethyl(piperidin-4-yl)amino)-3-methyl-5,6,7,10,16,17-hexahydro-1H-benzo[c]pyrido[4,3-k][1]azacyclotridecine-1,15(2H)-dione]
- pIC50 [3]: 7.49
- pIC50 [4]: 7.00

Molecule: COc1nc(C)cc2c1CNC(=O)c1ccnc(Cl)c1C/C=C\CC2
- ring closure, yield after HPLC [2, 6]: 18.3%

Molecule: CCN(c1cccc2c1C/C=C/CCc1cc(C)[nH]c(=O)c1CNC2=O)C1CCOCC1 [Example 6, (E)-10-(ethyl(tetrahydro-2H-pyran-4-yl)amino)-3-methyl-5,6,15,16-tetrahydrobenzo[c]pyrido[4,3-j][1]azacyclododecine-1,14(2H,9H)-dione hydrochloride, 0.10 1,4-dioxane solvate]
- pIC50 [3]: 7.00
- pIC50 [4]: 6.80

Molecule: CCN(c1cccc2c1CC=CCc1cc(C)[nH]c(=O)c1CNC2=O)C1CCNCC1 [Example 54, 9-(ethyl(piperidin-4-yl)amino)-3-methyl-5,8,14,15-tetrahydro-1H-benzo[c]pyrido[4,3-i][1]azacycloundecine-1,13(2H)-dione]
- pIC50 [3]: 5.40
- pIC50 [4]: 5.00

Molecule: CCN(c1cccc2c1C/C=C/CCc1cc(C)[nH]c(=O)c1CNC2=O)C1CCN(C)CC1 [Example 33, (E)-10-(ethyl(1-methylpiperidin-4-yl)amino)-3-methyl-5,6,15,16-tetrahydrobenzo[c]pyrido[4,3-j][1]azacyclododecine-1,14(2H,9H)-dione]
- pIC50 [3]: 7.40
- pIC50 [4]: 6.70

Molecule: CCN(c1cccc2c1C/C=C/CCCCc1cc(C)[nH]c(=O)c1CNC2=O)C1CCOCC1 [Example 14, (E)-12-(ethyl(tetrahydro-2H-pyran-4-yl)amino)-3-methyl-5,6,7,8,17,18-hexahydrobenzo[c]pyrido[4,3-l][1]azacyclotetradecine-1,16(2H,11H)-dione hydrochloride]
- pIC50 [3]: 7.30
- pIC50 [4]: 6.80

Molecule: CCN(c1cccc2c1C/C=C\CCCc1cc(C)[nH]c(=O)c1CNC2=O)C1CCOCC1 [Example 21, (Z)-11-(ethyl(tetrahydro-2H-pyran-4-yl)amino)-3-methyl-5,6,7,10,16,17-hexahydro-1H-benzo[c]pyrido[4,3-k][1]azacyclotridecine-1,15(2H)-dione]
- pIC50 [3]: 7.00
- pIC50 [4]: 6.40

Molecule: CCN(c1cccc2c1C/C=C\CNCc1cc(C)[nH]c(=O)c1CNC2=O)C1CCOCC1 [Example 39, (Z)-11-(ethyl(tetrahydro-2H-pyran-4-yl)amino)-3-methyl-5,6,7,10,16,17-hexahydro-1H-benzo[h]pyrido[4,3-c][1,6]diazacyclotridecine-1,15(2H)-dione]
- pIC50 [3]: 5.90
- pIC50 [4]: 5.70

Molecule: CCN(c1cccc2c1C/C=C\CCc1cc(C)[nH]c(=O)c1CNC2=O)C1CCNCC1 [Example 52, (Z)-10-(ethyl(piperidin-4-yl)amino)-3-methyl-5,6,15,16-tetrahydrobenzo[c]pyrido[4,3-j][1]azacyclododecine-1,14(2H,9H)-dione]
- pIC50 [3]: 6.20
- pIC50 [4]: 5.70

Molecule: CCN(c1cccc2c1C/C=C/CCc1cc(C)[nH]c(=O)c1CNC2=O)C1CCN(CCO)CC1 [Example 35, (E)-10-(ethyl(1-(2-hydroxyethyl)piperidin-4-yl)amino)-3-methyl-5,6,15,16-tetrahydrobenzo[c]pyrido[4,3-j][1]azacyclododecine-1,14(2H,9H)-dione]
- pIC50 [3]: 7.40
- pIC50 [4]: 6.70
